This note sets out measurements from PubChem BioAssay (NCI).

The structures appear in SMILES notation.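 Results reflect a 48-hour exposure of cells in 96-well plates to compound at five concentrations. TGI is the concentration that stops growth completely.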

Holding throughout (assay): NCI anticancer screen, dose series, 48 h
In test [1] the test system is SR leukemia.
Test [2] relates to HCT-116 colon.
Test [3] deals with OVCAR-3 ovarian.
For test [4], the system named is CCRF-CEM leukemia.
Test [5] deals with MALME-3M melanoma.
Test [6] concerns SF-268 CNS.
Test [7] has as its system HCT-15 colon.
In test [8] the test system is SK-OV-3 ovarian.
For test [9], the system named is SF-295 CNS.
Test [10] has as its system OVCAR-8 ovarian.
Test [11] has as its system SN12C renal.
Test [12] relates to A549 NSCLC.
For test [13], the system named is TK-10 renal.

As for `O=C(C[n+]1ccccc1)N/N=C(\Cc1nc2ccc([N+](=O)[O-])cc2[nH]c1=O)C(=O)Nc1cc(Cl)c(Cl)cc1Cl`, the TGI in test [1], in [2], in [3], in test [4], in [5] and in [6] was > 100 µM in each case. Further, the TGI in test [7], in test [8], in [9], in test [10], in test [11] and in test [12] was > 100 µM throughout.

Turning to `O=C(CCCNc1nc(-c2ccccc2)cs1)c1cccs1`, the TGI in [1], in test [2], in [3], in [5], in [6] and in test [7] was > 100 µM in each case. Also, the TGI in [8], in test [9], in test [10], in test [13], in test [11] and in test [12] was > 100 µM throughout.

For `Cn1c(-c2cccs2)cc(-c2cccs2)c1-c1ccco1`, the TGI in test [1], in test [2], in test [3], in test [4], in test [6] and in test [7] was > 100 µM in each case. Also, the TGI in test [8], in test [9], in [10], in [13], in test [11] and in test [12] was > 100 µM each time.

Turning to `Cc1cc(S(=O)(=O)/N=C(\[N-]S(=O)(=O)c2ccc(Cl)cc2)[n+]2ccc(N(C)C)cc2)c(S)cc1Cl`, the TGI in [1] was 3.13 µM; in test [2], 44.7 µM; in test [3], > 100 µM; in [4] it was > 100 µM; in [6], > 100 µM; in test [7], > 100 µM. Besides, the TGI in test [8], in test [9], in test [10] and in test [13] was > 100 µM throughout.

Regarding `Cc1oc(N)c(S(=O)(=O)c2ccc(Cl)cc2)c1C`, the TGI in [1], in test [2], in test [3], in test [4], in test [5] and in [6] was > 100 µM in each case. In addition, the TGI in test [7], in test [8], in test [9], in [10], in test [13] and in test [12] was > 100 µM throughout.

In the case of `CCOC(=O)c1sc(N/N=C2\NC(=O)/C(=C/c3ccc([N+](=O)[O-])cc3)S2)nc1C`, the TGI in test [1] is 29.4 µM; in [2], 36.7 µM; in test [3] it was 49.9 µM; in [4], 35.4 µM; in [6], > 100 µM; in [7] it was 48.5 µM. Also, the TGI in [8] is > 100 µM; in test [9], > 100 µM; in test [10], 65.2 µM; in test [13], > 100 µM; in test [11], 88.2 µM; in [12], > 100 µM.

Take `C/C=C\C(CC(=O)NCCC1CN(S(=O)(=O)C(F)(F)F)c2ccccc21)CC(=O)OC` (configuration not stated): the TGI in test [1] was > 100 µM; in [2], > 100 µM; in test [3], > 100 µM; in test [4], > 100 µM; in [5], 45.9 µM; in [7], > 100 µM. Also, the TGI in test [8], in test [9], in test [10] and in test [12] was > 100 µM each time.

`CN1CCCCC(C#N)(c2ccccc2)CC1` (configuration not stated): the TGI in [1], in test [2], in [4], in [5], in test [6] and in test [7] was > 100 µM in each case. In addition, the TGI in [8], in test [9], in [10], in [13] and in [12] was > 100 µM throughout.

For `C/C(=N\Nc1nc2ccccc2n1C)c1cnccn1`, the TGI in test [1] was > 100 µM; in test [3], 2.75 µM; in test [4], 6.17 µM; in [5], > 100 µM; in [6], > 100 µM; in test [7] it was > 100 µM. For the same compound, the TGI in [8], in [9], in test [10], in test [13], in [11] and in [12] was > 100 µM throughout.

Consider `O=C1N2CCc3c([nH]c4ccccc34)C23CC2CCCCC12S3` (configuration not stated), for which the TGI in test [1], in test [2], in test [3], in test [5], in [6] and in test [7] was > 100 µM throughout. For the same compound, the TGI in test [8], in [9], in test [10], in test [13], in test [11] and in test [12] was > 100 µM each time.

Regarding `O=C1O[C@H]2[C@H](O)[C@@H](OC(=O)c3cc(O)c(O)c4c3[C@@H]3C1=CC(=O)C(O)(O)C3(O)O4)[C@H](OC(=O)c1cc(O)c(O)c(O)c1)O[C@@H]2CO` (some centres not stated), the TGI in test [1] is > 100 µM; in test [2] it was > 100 µM; in [3] it was > 100 µM; in test [4], 46.1 µM; in test [5], > 100 µM; in test [6], > 100 µM. In addition, the TGI in test [7], in test [8], in test [9], in test [10], in test [11] and in test [12] was > 100 µM throughout.
